# Assay results taken from patent publication US20050159360A1, “Compositions for the transport of therapeutic molecules into the lungs and use thereof for the treatment of lung cancers and pulmonary diseases” (SYNT:EM, a corporation of France, priority 2002, published 2005).
# Assay: Pharmacokinetics/biodistribution of [14C]-tagged doxorubicin and vectorized doxorubicin in plasma and organs after intravenous injection in mice;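 note: radioactivity counted in plasma and organs of mice killed 1 to 60 min post-dose, converted to percentage of product per organ, five animals per time point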
# Conditions: i.v., 1 mg/kg doxorubicin equivalent, 14C radioactivity
# Protocol: About 0.6-1 microcurie was injected per animal. The doxorubicin was tagged with carbon 14 (specific activity 55 mCi/mmol). After the indicated time periods (1, 5, 15, 30, 60 minutes), the mice were sacrificed. The organs (lungs, liver, brain, kidneys, etc.) and the plasma were then collected and counted. The quantity of radioactivity in each organ was then expressed as quantity of product per gram of organ. In this study, five mice were used for each time period.
# After injection of the doxorubicin or the vectorized doxorubicin, we compared the pharmacokinetics/biodistribution of the products in the plasma and the different organs. The quantity of each product was expressed as percentage of product per organ.
structure (smiles),measurement,setting,value
"COc1cccc2c1C(=O)c1c(O)c3c(c(O)c1C2=O)C[C@@](O)(C(=O)CO)C[C@@H]3O[C@H]1C[C@H](N)[C@H](O)[C@H](C)O1 [compound 1, doxorubicin]",Percentage of product in Brain after intravenous injection,time 1 minute,0.06%
same,Percentage of product in Heart after intravenous injection,time 1 minute,0.58%
same,Percentage of product in Kidneys after intravenous injection,time 1 minute,3.37%
same,Percentage of product in Liver after intravenous injection,time 1 minute,17.81%
same,Percentage of product in Lungs after intravenous injection,time 1 minute,1.30%
same,Percentage of product in Plasma after intravenous injection,time 1 minute,1.84%
same,Percentage of product in Brain after intravenous injection,time 5 minutes,0.03%
same,Percentage of product in Heart after intravenous injection,time 5 minutes,0.52%
same,Percentage of product in Kidneys after intravenous injection,time 5 minutes,5.58%
same,Percentage of product in Liver after intravenous injection,time 5 minutes,23.02%
same,Percentage of product in Lungs after intravenous injection,time 5 minutes,1.24%
same,Percentage of product in Plasma after intravenous injection,time 5 minutes,0.53%
same,Percentage of product in Brain after intravenous injection,time 15 minutes,0.03%
same,Percentage of product in Heart after intravenous injection,time 15 minutes,0.54%
same,Percentage of product in Kidneys after intravenous injection,time 15 minutes,5.24%
same,Percentage of product in Liver after intravenous injection,time 15 minutes,20.22%
same,Percentage of product in Lungs after intravenous injection,time 15 minutes,1.14%
same,Percentage of product in Plasma after intravenous injection,time 15 minutes,0.34%
same,Percentage of product in Brain after intravenous injection,time 30 minutes,0.02%
same,Percentage of product in Heart after intravenous injection,time 30 minutes,0.45%
same,Percentage of product in Kidneys after intravenous injection,time 30 minutes,4.48%
same,Percentage of product in Liver after intravenous injection,time 30 minutes,19.70%
same,Percentage of product in Lungs after intravenous injection,time 30 minutes,1.03%
same,Percentage of product in Plasma after intravenous injection,time 30 minutes,0.19%
same,Percentage of product in Brain after intravenous injection,time 60 minutes,0.02%
same,Percentage of product in Heart after intravenous injection,time 60 minutes,0.36%
same,Percentage of product in Kidneys after intravenous injection,time 60 minutes,2.43%
same,Percentage of product in Liver after intravenous injection,time 60 minutes,17.80%
same,Percentage of product in Lungs after intravenous injection,time 60 minutes,0.85%
same,Percentage of product in Plasma after intravenous injection,time 60 minutes,0.18%
